Assay results reported in US6340708B1, “Pharmaceutical composition comprising at least one aminopeptidase A inhibitor” (Institut National de la Sante et de la Recherche Medicale …, priority 1998, dated 2002).
Entries after “also recorded” stand apart in the source; their conditions may differ.

How the values were obtained:
[1] = system: arterial pressure of WKY normotensive and SHR hypertensive rats; assay: Mean arterial pressure in anaesthetized WKY and SHR rats after i.c.v. injection; assay type: in vivo, rat; details: for maximum hypotensive effect (change in arterial pressure): 100 μg i.c.v.; for antagonist effect on PC18-induced increase in arterial pressure: Losartan 10 μg pretreatment, PC18 60 μg
From the text: The rats used are male Sprague-Dawley rats weighing 200 to 250 grams; some of them are 11-week-old rats (SHR). Wistar Kyoto normotensive rats are also used as controls. The animals are kept for one week with alternating 12-hour periods of light and half-light, and have water and food available ad libitum. For each experiment, the SHR and WKY rats are weighed, and their arterial pressure and cardiac rhythm are continuously recorded via an invasive route after inserting a catheter (PE 50) into the femoral artery. The catheter is linked to a pressure sensor (COBE) and connected to a signal processor which is linked to an amplifier. The computer system comprises a MacLab interface system and application software (Chart and Scope) which allows data acquisition and calculation through a Macintosh computer.
These experiments are carried out in Wistar Kyoto (WKY) normotensive rats or spontaneously hypertensive rats (SHR 12 weeks old).
The animals are anaesthetized with Inactin (5-ethyl-2-(1′-methylpropyl)-2-thiobarbita), this being an anaesthetic which is used regularly in renal or cardiovascular physiology experiments. Its properties are to cause a very slight drop in arterial pressure, which is visible only in SHR rats, and especially to allow a stable basal arterial pressure to be maintained throughout the experiment.
The mean arterial pressure (systolic+diastolic) is measured continuously, via an invasive route, after catheterizing the femoral artery. The peptides or the inhibitors, are injected via the intracerebroventricular (i.c.v.) route with the aid of a cannula positioned in the lateral ventricle under stereotaxy (Stereotaxic Atlas; G. Paxinos and C. Watson, Academic Press, 1986).
The experiments are carried out on groups of 4 to 20 individually analysed animals. The results on batches of control animals and treated animals were compared with the aid of an analysis of variance (ANOVA), followed by an unpaired Student's test.
An injection of angiotensin II is carried out combined, where appropriate, with a consecutive injection of EC33.
In accordance with the protocol described in Example 3, AngIII (10 ng) in the presence of 60 μg of PC18 is injected into SHR rats. As a control test, an injection of PC18 alone is carried out.

[2] = system: formation of angiotensin III from [3H]AngII in hypothalamus; assay: In vivo metabolism of tritiated AngII/AngIII in murine hypothalamus after i.c.v. injection; parameters: species or system mouse; details: mice
Method: Male Swiss mice (available from the IFFA Credo Institute) weighing 18 to 20 grams are maintained under artificial light (12 hours in bright phase - 12 hours in half-light) and have food and water available ad libitum. The experiments are carried out between 9 o'clock and 11 o'clock in the morning. The drugs are administered into the lateral ventricle by the intracerebroventricular route (i.c.v) at an amount of 5 μl per mouse according to the method of Haley and McCormick (Br. J. Pharmacol. 12, 12-15).
For each experiment, six to eight mice are used for each of the conditions. A mixture of 2×10^6 cpm of [^3H]Ang II and 30 μg of unlabelled Ang II is administered in a 5 μl volume, alone or together with EC33 (30 μg). The inhibitors are dissolved in an isotonic saline solution adjusted to a pH of 7.4 with 0.01 M NaOH solution. At various times after the injection, the mice are decapitated, their brains are removed and their hypothalami are dissected on ice and homogenized by sonication (ultrasons, Anemasse, France) in 10 volumes of a 0.1 M HCl solution cooled in ice. […]
The respective amounts of labelled angiotensins II and III present in the hypothalamus are determined according to the protocol of Ledwith et al. (Anal. Biochem. 213, 349-355). […] The F1 and F2 fractions are then analysed by HPLC to determine their respective content of tritiated angiotensin II and tritiated angiotensin III.
With the aim of an HPLC analysis, the F1 and F2 fractions are initially concentrated by extraction on a C18 Sep-pak® Cartridges device (Waters). […] After elution on Sep-pak®, the respective F1 and F2 fractions are freeze-dried, dissolved in 0.2 ml of a 0.01 M acetic acid solution, with 20 ng of angiotensin II and of angiotensin III as internal standard, and analysed by HPLC.
The HPLC analysis is carried out using an H Hypersil ODS®-3 μm reverse phase column (Shandon, Pittsburgh) heated to 45° C., then with an isocratic elution at a flow rate of 0.6 ml per minute. […] Their radioactivity content is estimated with a beta counter. […]

[3] = system: arterial pressure of conscious SHR rats; assay: Arterial pressure in conscious SHR rats after i.c.v. or i.v. injection; assay type: in vivo, rat
Method: These experiments are carried out in a 12-week-old SHR rats (300-350 g). During the operation, the animals are anaesthetized for a limited time (3 hours) with sodium pentobarbital (50 mg/kg intraperitoneal, Laboratoire Sentravet, Plancoët, France) The experiments are carried out a minimum of 24 hours after the operation.
The injections are carried out with the aid of a cannula positioned in the lateral ventricle under stereotaxy, and the arterial pressure is measured continuously, via an invasive route, after catheterizing the femoral artery. The catheter is exteriorized at the level of the animal's neck, and is linked to a fixing system which allows the rat to move around freely in its cage.
A first catheter is positioned in the femoral vein in order to carry out the injections, a second catheter is introduced into the femoral artery in order to be able to measure arterial pressure continuously. Both catheters are then exteriorized as indicated above.

aminopeptidase A (APA) = assay: Measurement of APA activity in vitro (GluβNa hydrolysis, purified APA); details: APN versus APA
From the text: In vitro, in the presence of calcium ions, APA hydrolyses α-L-glutamyl-β-naphthylamide (gluβNa) to glutamate and β-naphthylamine (βNa). A diazotation reaction in acid medium makes it possible to reveal the β-naphthylamine by formation of a violet-coloured complex: spectrophotometric measurement then makes it possible to know the amount of complex formed and, by reference to a standard curve produced with increasing concentrations of β-naphthylamine, to deduce therefrom the enzymatic activity of the sample.
The GluβNa substrate and the β-naphthylamine (Bachem) are dissolved in DMSO (dimethyl sulphoxide) and 0.1 N HCl respectively, and conserved at −20° C. at a concentration of 10^−2 M. The diazotation reaction is carried out in the presence of sodium nitrite (87 mM), ammonium sulphamate (130 mM) and N-(1-naphthyl)-ethylenediamine dihydrochloride (23 mM).
The reaction takes place at pH 7.4 in 50 mM tris-HCl buffer, in the presence of calcium (4 mM CaCl2); the sample to be assayed is incubated at 37° C. in the presence of substrate (200 μM GluβNa) and in the presence or absence of various concentrations of the inhibitor to be tested, in a final volume of 100 μl. The reaction is stopped by adding 10 μl of 3N HCl. A standard curve of β-naphthylamine in acid medium (add 10 μl of 0.1 N HCl) is produced in parallel.
The following are added to each well: […]

With N[C@H](CS)CCS(=O)(=O)[O-].[Na+] [EC33, sodium (S)-3-amino-4-mercaptobutylsulphonate] the “effect on the AngII-induced increase in arterial pressure” value ([1]; AngII 10 ng with EC33 100 μg i.c.v.) was “completely eliminated”, the “modification of the effect on pressure of AngIII” value ([1]; AngIII 30 ng with EC33 i.c.v.) was “ineffectiveness” and the “maximum hypotensive effect (change in arterial pressure)” value ([1]; hypertensive (SHR) anaesthetized rats) was −28 mmHg. For the same molecule, the “maximum hypotensive effect (change in arterial pressure)” value ([1]; normotensive (WKY) anaesthetized rats) was −22 mmHg, the “formation of tritiated AngIII in hypothalamus” value ([2]; EC33 30 μg i.c.v.) was “immediately blocked; also recorded: totally blocks” and the “half-life of [3H]AngII in hypothalamus” value ([2]; EC33 30 μg i.c.v. with [3H]AngII and 30 μg AngII) was 5.38 ± 0.21 min. The “[3H]AngII content in hypothalamus, times the content of the control test” value ([2]; EC33 30 μg i.c.v., between 0.5 and 7 minutes) was “approximately 11”, the “decrease in arterial pressure” value ([3]; 100 μg i.c.v.) was −26 mmHg and the “duration of hypotensive effect” value ([3]; 100 μg i.c.v.) was 40 min. The hypotensive effect ([3]; 45 mg/kg i.v.) was “does not induce a significant hypotensive effect”.
With “angiotensin II (DRVYIHPF; Angiotensin-2; UniProt P01019 25-32, looked up) [ANGII, angiotensin II peptide available from Amersham or Sigma]” the “maximum magnitude of increase in arterial pressure” value ([1]; AngII 10 ng i.c.v., WKY and SHR rats) was “approximately 10 mmHg”.
With CSCC[C@H](N)CS [PC18, methioninethiol] the “effect on the pressure effect of AngIII” value ([1]; AngIII 10 ng with PC18 60 μg i.c.v., SHR rats) was “potentiation”, the “increase in arterial pressure” value ([1]; PC18 60 μg i.c.v., normotensive rats) was “+10 mmHg” and the “duration of pressure effect” value ([1]; PC18 alone 60 μg i.c.v., SHR rats) was “approximately 12 minutes”. The “times less active on APA than on APN” value (aminopeptidase A (APA)) was 1000.
In the case of CCCCc1nc(Cl)c(CO)n1Cc1ccc(-c2ccccc2-c2nn[nH]n2)cc1 [Losartan], the “antagonist effect on PC18-induced increase in arterial pressure” value ([1]; hypertensive rats) is reported as “about 52%” and the “antagonist effect on PC18-induced increase in arterial pressure” value ([1]; normotensive rats) is reported as “about 85%”.
